The results in this text go back to patent US12329786B2, “Regulate gut microbiota to treat neurodegenerative disorders” (California Institute of Technology, priority 2016, dated 2025).

Each structure is given as a SMILES string.

The target of this assay is T1, human αSyn (Homo sapiens, UniProt P37840).
T1 construct: made in house
Briefly: In vitro αSyn aggregation kinetics by ThT fluorescence. The following applies: range of concentrations, singly or in mixtures. The assay is classed as biochemical. Here is the method: The ThT fluorescence signal was recorded using a microplate reader (Fluostar OPTIMA Microplate reader, BMG Labtech) with the excitation filter of 440±10 nm and an emission filter of 490±10 nm under intermittent shaking conditions at 37 °C. The kinetic curves were normalized to the fluorescence maxima and the time to reach half-maximum intensity quantified. For atomic force microscopy (AFM) imaging, samples were diluted with ultrapure water to […] total protein concentration, and […] were pipetted onto freshly cleaved mica and left to dry. The samples were imaged with a Modular scanning probe microscope NTEGRA Prima (NT-MDT) in intermittent contact mode in air using a gold-coated single crystal silicon cantilever (spring constant of ˜5.1 N/m) with a resonance frequency of ˜150 kHz. AFM images were processed with Gwyddion open source software.
As for `CCC(=O)[O-].[Na+]` [sodium propionate], the “αSyn aggregation kinetics (ThT fluorescence, time to half-max)” value (shortened to “αSyn aggregation kinetics”) is listed as “did not expedite the aggregation of human αSyn in vitro”.

Regarding `CCCC(=O)[O-].[Na+]` [sodium butyrate], the “αSyn aggregation kinetics” value is “did not expedite the aggregation of human αSyn in vitro”.

Take `CC(=O)[O-].[Na+]` [sodium acetate]: the “αSyn aggregation kinetics” value is “did not expedite the aggregation of human αSyn in vitro”.
